Data from ChEMBL document CHEMBL5150050, “Hybrids of small CD4 mimics and gp41-related peptides as dual-target HIV entry inhibitors” (Bioorg Med Chem, 2022).
Where a SMILES comes first, the peptide text is derived from it. [ ]: non-standard residue; d: D form. Nle = CCCC[C@H](N)C(=O)O

Experiments:
[1] = system: Human immunodeficiency virus 1; assay: Antiviral activity against HIV-1 KP-5mvcR infected in human TZM-bl cells assessed as inhibition of viral entry by measuring reduction in RLU by single round assay; assay type: functional, organism-based; conditions: Human immunodeficiency virus 1, KP-5mvcR
TZM = assay: Cytotoxicity against human TZM-bl cells; assay type: toxicity, cell-based
[2] = system: Human immunodeficiency virus 1; assay: Antiviral activity against HIV-1 KP-5mvcR infected in human TZM-bl cells assessed as inhibition of viral entry by measuring reduction in RLU at 10 nM by single round assay relative to control; assay type: functional; parameters: scale not given: the % may be the effect or the level left

Compound | IC50 [1] [nM] | Activity (TZM) | Activity [2] [%]
O=C1Nc2ccc(Cl)cc2[C@@](C#CC2CC2)(C(F)(F)F)O1 [EFAVIRENZ] | 11 |  | 
enfuvirtide | 32 |  | 
CCCC[C@H](NC(=O)[C@H](Cc1c[nH]c2ccccc12)NC(C)=O)C(=O)N[C@@H](CCC(=O)O)C(=O)N[C@@H](Cc1c[nH]c2ccccc12)C(=O)N[C@@H](CC(=O)O)C(=O)N[C@@H](CCCNC(=N)N)C(=O)N[C@@H](CCCCN)C(=O)N[C@H](C(=O)N[C@@H](CCC(=O)O)C(=O)N[C@@H](CCC(=O)O)C(=O)N[C@@H](Cc1ccc(O)cc1)C(=O)N[C@H](C(=O)N[C@@H](CCCCN)C(=O)N[C@@H](CCCCN)C(=O)N[C@H](C(=O)N[C@@H](CCCCN)C(=O)N[C@@H](CCCCN)C(=O)N[C@@H](CC(C)C)C(=O)N[C@H](C(=O)N[C@@H](CCC(=O)O)C(=O)N[C@@H](CCC(=O)O)C(=O)N[C@@H](CO)C(=O)N[C@@H](CCC(N)=O)C(=O)N[C@@H](CCC(=O)O)C(=O)N[C@@H](CCC(N)=O)C(=O)N[C@@H](CCC(N)=O)C(=O)N[C@@H](CCC(=O)O)C(=O)N[C@@H](CCCCN)C(=O)N[C@@H](CC(N)=O)C(=O)N[C@@H](CCC(=O)O)C(=O)N[C@@H](CCCCN)C(=O)N[C@@H](CCC(=O)O)C(=O)N[C@@H](CC(C)C)C(=O)N[C@@H](CCCCN)C(=O)N[C@H](CSCC(=O)NCc1cn(CCCC[C@H](NC(=O)[C@H](CO)NC(=O)CNC(=O)CNC(=O)CNC(=O)CNC(=O)CCC(=O)N[C@@H](CCCNC(=N)N)C(=O)NCCN2CCC(NC(=O)C(=O)Nc3ccc(Cl)cc3)CC2)C(N)=O)nn1)C(N)=O)[C@@H](C)CC)[C@@H](C)CC)[C@@H](C)O)[C@@H](C)CC | 5.5 |  | 
CCCC[C@H](NC(=O)[C@H](Cc1c[nH]c2ccccc12)NC(C)=O)C(=O)N[C@@H](CCC(=O)O)C(=O)N[C@@H](Cc1c[nH]c2ccccc12)C(=O)N[C@@H](CC(=O)O)C(=O)N[C@@H](CCCNC(=N)N)C(=O)N[C@@H](CCCCN)C(=O)N[C@H](C(=O)N[C@@H](CCC(=O)O)C(=O)N[C@@H](CCC(=O)O)C(=O)N[C@@H](Cc1ccc(O)cc1)C(=O)N[C@H](C(=O)N[C@@H](CCCCN)C(=O)N[C@@H](CCCCN)C(=O)N[C@H](C(=O)N[C@@H](CCCCN)C(=O)N[C@@H](CCCCN)C(=O)N[C@@H](CC(C)C)C(=O)N[C@H](C(=O)N[C@@H](CCC(=O)O)C(=O)N[C@@H](CCC(=O)O)C(=O)N[C@@H](CO)C(=O)N[C@@H](CCC(N)=O)C(=O)N[C@@H](CCC(=O)O)C(=O)N[C@@H](CCC(N)=O)C(=O)N[C@@H](CCC(N)=O)C(=O)N[C@@H](CCC(=O)O)C(=O)N[C@@H](CCCCN)C(=O)N[C@@H](CC(N)=O)C(=O)N[C@@H](CCC(=O)O)C(=O)N[C@@H](CCCCN)C(=O)N[C@@H](CCC(=O)O)C(=O)N[C@@H](CC(C)C)C(=O)N[C@@H](CCCCN)C(N)=O)[C@@H](C)CC)[C@@H](C)CC)[C@@H](C)O)[C@@H](C)CC (Ac-W[Nle]EWDRKIEEYTKKIKKLIEESQEQQEKNEKELK-NH2) | 0.64 | Non-Toxic | 
CCCC[C@H](NC(=O)[C@H](Cc1c[nH]c2ccccc12)NC(C)=O)C(=O)N[C@@H](CCC(=O)O)C(=O)N[C@@H](Cc1c[nH]c2ccccc12)C(=O)N[C@@H](CC(=O)O)C(=O)N[C@@H](CCCNC(=N)N)C(=O)N[C@@H](CCCCN)C(=O)N[C@H](C(=O)N[C@@H](CCC(=O)O)C(=O)N[C@@H](CCC(=O)O)C(=O)N[C@@H](Cc1ccc(O)cc1)C(=O)N[C@H](C(=O)N[C@@H](CCCCN)C(=O)N[C@@H](CCCCN)C(=O)N[C@H](C(=O)N[C@@H](CCCCN)C(=O)N[C@@H](CCCCN)C(=O)N[C@@H](CC(C)C)C(=O)N[C@H](C(=O)N[C@@H](CCC(=O)O)C(=O)N[C@@H](CCC(=O)O)C(=O)N[C@@H](CO)C(=O)N[C@@H](CCC(N)=O)C(=O)N[C@@H](CCC(=O)O)C(=O)N[C@@H](CCC(N)=O)C(=O)N[C@@H](CCC(N)=O)C(=O)N[C@@H](CCC(=O)O)C(=O)N[C@@H](CCCCN)C(=O)N[C@@H](CC(N)=O)C(=O)N[C@@H](CCC(=O)O)C(=O)N[C@@H](CCCCN)C(=O)N[C@@H](CCC(=O)O)C(=O)N[C@@H](CC(C)C)C(=O)N[C@@H](CCCCN)C(=O)N[C@H](CSCC(=O)NCCCC[C@H](NC(=O)[C@H](CO)NC(=O)CNC(=O)CNC(=O)CNC(=O)CNC(=O)CCC(=O)N[C@@H](CCCNC(=N)N)C(=O)NCCN1CCC(NC(=O)C(=O)Nc2ccc(Cl)cc2)CC1)C(N)=O)C(N)=O)[C@@H](C)CC)[C@@H](C)CC)[C@@H](C)O)[C@@H](C)CC | < 10 |  | 95.6

The remaining compounds from weak to strong by IC50 [1], led by results:

IC50 [1] [nM] | Compound | Activity (TZM) | Activity [2] [%]
150 | CC[C@H](C)[C@H](NC(=O)[C@H](CCCCN)NC(=O)[C@H](CCCCN)NC(=O)[C@H](CC(=O)O)NC(=O)[C@H](Cc1c[nH]c2ccccc12)NC(=O)[C@H](CCC(=O)O)NC(=O)[C@H](CCC(=O)O)NC(=O)[C@H](Cc1c[nH]c2ccccc12)NC(C)=O)C(=O)N[C@@H](CCC(=O)O)C(=O)N[C@@H](CCC(=O)O)C(=O)N[C@@H](Cc1ccc(O)cc1)C(=O)N[C@H](C(=O)N[C@@H](CCCCN)C(=O)N[C@@H](CCCCN)C(=O)N[C@H](C(=O)N[C@@H](CCC(=O)O)C(=O)N[C@@H](CCC(=O)O)C(=O)N[C@@H](CC(C)C)C(=O)N[C@H](C(=O)N[C@@H](CCCCN)C(=O)N[C@@H](CCCCN)C(=O)N[C@@H](CO)C(=O)N[C@H](CSCC(=O)NCCCC[C@H](NC(=O)[C@H](CO)NC(=O)CNC(=O)CNC(=O)CNC(=O)CNC(=O)CCC(=O)N[C@@H](CCCNC(=N)N)C(=O)NCCN1CCC(NC(=O)C(=O)Nc2ccc(Cl)cc2)CC1)C(N)=O)C(N)=O)[C@@H](C)CC)[C@@H](C)CC)[C@@H](C)O |  | 
145 | N=C(N)NCCCCC(=O)NCCN1CCC(NC(=O)C(=O)Nc2ccc(Cl)cc2)CC1 | Non-Toxic | 
60 | Ac-WEEWDKKIEEYTKKIEELIKKS-NH2 | Non-Toxic | 
